Source: patent publication US8372848B2, “Melanin-concentrating hormone receptor antagonists and methods of use” (Mixture Sciences, Inc., priority 2004, dated 2013)
Entries after “also recorded” stand apart in the source; their conditions may differ.

Legend:
rats [1] = experiment: Spontaneous food and water intake after 1 hour deprivation, Example VIII; assay type: in vivo, rat; details: 10 nM i.c.v., start of dark cycle; for 30 minute food intake following 1 hour food/water deprivation, TPI treated versus control: b181 words it as control greater than treated, p less than 0.005
Protocol: In this example, adult male Sprague-Dawley rats, weighing 350-400 g were randomly divided into two (2) groups of eight (8) rats each (Groups I and II). The animals were housed individually in a room having an ambient temperature of 20 degrees C., a light cycle from 07:00 to 19:00 each day and a dark cycle from 19:00 to 07:00.
In a first experiment, food (rat chow) and water were made available ad libitum except during a 1 hour food/water deprivation period from 18:00 to 19:00. At the end of the 1 hour food/water deprivation period the animals in Group I (n=8) received 0.9% saline by i.c.v. injection and the animals in Group II (n−8) received 10 nM TPI 1361-17 (Formula IV) by i.c.v. injection. Immediately after dosing, and upon commencement of the darkness cycle, food (rat chow) and water were again made available ad libitum and food and water intake were measured for the next thirty (30) minutes. Data were compared using the non-parametric t-Test with the 0.05 level of probability and below being defined as significant.

rats [2] = experiment: Spontaneous food intake after icv administration, Example IV; assay type: in vivo, rat; details: 5 nmol icv
Protocol: To determine inhibitory effects of TPI 1361-17 on spontaneous food intake, TPI 1361-17 (5 nmol) was administered icv and food intake was measured 0.5 h, 1 h, 2 h, and 4 h after the injection. Food intake was quantified either at the start of either the dark phase, which is considered similar to natural conditions, or the light phase. To synchronize initiation of the food intake and to measure the efficiency of TPI 1361-17, rat food pellets were removed for different lengths of time before the injection. It was observed that TPI 1361-17 reduced spontaneous food intake of rats that have been fasted for 1 hr before the dark phase by 37%. This inhibitory effect was detected within the first 30 minutes of feeding and is not detected later (FIG. 6A).
The two groups of rats that were tested at the beginning of the dark phase were starved for 1 h or 4 h before, being injected with 5 nmol of antagonist or ACSF between 6:00-7:00 p.m. Animals had free access to water. Fifteen minutes after injection, container of regular low-fat diet were placed in the cage, and food consumption was monitored for 4 h. The group of rats that were injected at the beginning of the light phase was starved overnight before being injected at 5 nmol of antagonist or ACSF. Monitoring of the food consumption was identical to that described for the rats starved during the dark phase.
For animal studies, adult male Sprague-Dawley rats weighing 200-300g were obtained from Charles River Laboratories (Wilmington, Mass.), bearing a 23-gauge stainless steel cannula placed into the right lateral ventricle. Rats were housed individually and maintained on a 12 h light-dark cycle (6:00 am-6:00 pm light) with free access to tap water and rat chaw (PROLAB RMH 2500, containing 23.0% protein, 4.5% fat, gross energy 4.5 kcal/g. PMI nutrition international, LLC. Brentwood, Mo.). […]

MCH1R = target: T1, MCH1R (Rattus norvegicus, UniProt P97639); experiment: Library screening: inhibition of 30 nM MCH-induced Ca2+ mobilization in CHO cells expressing MCH1R; assay type: cell-based; details: five concentrations, ten-fold dilutions starting at 10 µM
T1 construct: expressed in transfected cells; host or cells: CHO
Protocol: A total of thirteen heterocyclic or peptidomimetics PS-SCLs containing 8,136,870 individual compounds were tested (Table 1). Most libraries were generated in a PS format by using 40˜50 amino acids at each of the R1 and R2 positions, and 40˜80 carboxylic acids at the R3 position. A sample set of PS-SCLs was screened initially, sub-libraries with defined R3 positions and a mixture of building blocks at each of the other two positions were prepared (all compounds in the library are represented). Each sub-library was composed of 40˜80 mixtures containing 1,500˜3,200 individual compounds. […]
Each mixture was assayed in duplicate in three separate assays at three concentrations (1, 0.1 and 0.01 µg/ml) (FIG. 1B). MCH1R inhibition was calculated as the percent decrease in intracellular Ca^2+ mobilization in MCH1R expressing CHO cells induced by 30 nM MCH in the presence or absence of the mixture. […]
Transfected […] cells seeded on black-walled 96-well plates (Sigma, St Louis USA) were loaded for 1 h at 37° C. with Ca^2+-sensitive fluorescent dye, fluo-4 (Molecular Device, CA) in Hanks' balanced salt solution containing 20 mM HEPES (pH 7.4). The level of [Ca^2+]i was then monitored using a FLIPR system (Fluorometric Imaging Plate Reader; Molecular Devices, San Francisco, Calif.). […] Data were expressed as fluorescence (arbitrary units) versus time.

human MCH2R = human MCH2R (Homo sapiens, UniProt Q969V1); experiment: Selectivity versus human MCH2R; assay type: cell-based
Sequence of human MCH2R (Q969V1 whole entry): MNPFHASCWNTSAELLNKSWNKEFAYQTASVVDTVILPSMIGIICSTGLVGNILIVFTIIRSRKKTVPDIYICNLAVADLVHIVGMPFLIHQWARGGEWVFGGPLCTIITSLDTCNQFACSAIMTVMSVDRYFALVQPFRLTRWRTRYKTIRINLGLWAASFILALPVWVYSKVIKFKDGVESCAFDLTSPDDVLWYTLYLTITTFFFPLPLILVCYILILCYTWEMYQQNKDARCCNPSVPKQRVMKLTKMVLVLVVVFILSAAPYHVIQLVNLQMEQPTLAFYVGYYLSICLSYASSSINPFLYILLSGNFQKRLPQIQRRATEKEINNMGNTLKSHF

T1 sequence (P97639 whole entry): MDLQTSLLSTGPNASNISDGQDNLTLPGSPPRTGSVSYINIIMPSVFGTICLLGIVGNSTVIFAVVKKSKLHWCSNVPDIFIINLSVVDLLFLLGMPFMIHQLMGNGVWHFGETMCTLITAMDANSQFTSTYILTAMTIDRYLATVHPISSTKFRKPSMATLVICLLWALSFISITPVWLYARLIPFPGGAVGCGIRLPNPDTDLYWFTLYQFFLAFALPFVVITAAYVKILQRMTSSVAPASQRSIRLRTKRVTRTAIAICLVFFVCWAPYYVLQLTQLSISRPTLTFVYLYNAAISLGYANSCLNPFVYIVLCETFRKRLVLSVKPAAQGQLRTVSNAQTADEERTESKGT

- IC50 inhibiting 30 nM MCH-induced Ca2+ mobilization, 84 individual compounds (MCH1R): highest affinity
- Selectivity for MCH1R compared with human MCH2R (human MCH2R): more than 1,000 fold
Compound: C[C@@H](CNCc1ccccc1)N1C[C@H](CCCNC(=N)N)N(CCc2cccc(F)c2)C1=S [TPI 1361-17, N-(3-{(4S)-1-[(1S)-2-(benzylamino)-1-methylethyl]-3-[2-(3-fluorophenyl)ethyl]-2-thioxoimidazolidin-4-yl}propyl)guanidine]
- 30 minute water intake following 1 hour food/water deprivation, TPI treated versus control (rats [1]): not significantly different
- 30 minute food intake following 1 hour food/water deprivation, TPI treated versus control (rats [1]): significantly greater
- 30 minute food intake following 1 hour food/water deprivation, TPI treated versus control (rats [1]; listed as TPI): significant decrease
- 30 minute water intake following 1 hour food/water deprivation, TPI treated versus control (rats [1]; listed as TPI): non-significant decrease
- Reduction of spontaneous food intake (rats [2]; fasted 1 hr before dark phase, first 30 minutes of feeding): 37%
- Effect on spontaneous food intake (rats [2]; fasted 4 h before the dark phase): no apparent effect
- Effect on spontaneous food intake (rats [2]; fasted 12 hrs before the light phase): no apparent effect
- Affinity to / antagonism of human MCH2R (human MCH2R): no affinity; also recorded: not appreciably antagonize
